Test results reported in publication PMC4008364, “Alleviation of behavioral hypersensitivity in mouse models of inflammatory pain with two structurally different casein kinase 1 (CK1) inhibitors” (Molecular Pain, 2014).
Numbering of substitutions follows the chain as printed. Like-named read-outs stand apart in the source and are kept apart here.

Legend:
[1] = biological target: T1, CK1ϵ (Homo sapiens, UniProt P49674); assay: PER3 nuclear translocation assay, HEK293 cells expressing CK1ϵ; format: cell-based; details: 1 hour pre-incubation, 8 hours doxycycline
T1 construct: F2A peptide (self-cleaving link to EGFP; its remnant stays on the CK1 C-terminus) (C); expressed in transfected cells; co-expressing mCherry-PER3
T1 sequence (P49674 whole entry): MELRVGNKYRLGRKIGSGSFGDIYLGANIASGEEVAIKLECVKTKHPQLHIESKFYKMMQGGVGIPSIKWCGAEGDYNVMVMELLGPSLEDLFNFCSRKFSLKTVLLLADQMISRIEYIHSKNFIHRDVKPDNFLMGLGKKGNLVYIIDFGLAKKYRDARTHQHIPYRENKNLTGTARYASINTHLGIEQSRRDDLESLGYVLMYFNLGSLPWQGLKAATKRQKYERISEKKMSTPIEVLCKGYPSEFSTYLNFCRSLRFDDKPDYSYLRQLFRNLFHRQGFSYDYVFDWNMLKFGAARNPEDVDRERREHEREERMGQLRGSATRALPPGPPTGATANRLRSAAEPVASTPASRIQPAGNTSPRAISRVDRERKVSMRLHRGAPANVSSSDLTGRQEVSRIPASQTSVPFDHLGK

[2] = biological target: T2, human CK1α (Homo sapiens, UniProt P48729); assay: In vitro kinase assay (QuickScout mobility shift assay), CK1α; format: biochemical
T2 construct: Full-length human CK1α, CK1γ1, CK1γ2, CK1γ3; GST (N); purchased Carna Biosciences, Inc; host or cells: baculovirus system (insect cells)
T2 sequence (P48729 whole entry): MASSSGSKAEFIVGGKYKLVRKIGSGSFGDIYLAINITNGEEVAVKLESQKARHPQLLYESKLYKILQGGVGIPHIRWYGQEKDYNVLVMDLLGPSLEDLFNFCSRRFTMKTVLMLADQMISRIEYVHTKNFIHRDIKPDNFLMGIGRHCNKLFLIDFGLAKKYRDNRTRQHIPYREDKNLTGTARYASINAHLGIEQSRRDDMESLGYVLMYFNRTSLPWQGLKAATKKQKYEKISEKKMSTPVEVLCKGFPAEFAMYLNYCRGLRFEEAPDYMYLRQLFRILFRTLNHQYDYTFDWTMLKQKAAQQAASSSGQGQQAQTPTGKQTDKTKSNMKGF
Description: (§1) […]; Carna Biosciences, Inc., Kobe, Japan). Detailed information on the assay condition is available on the website of Carna Biosciences (http://www.carnabio.com). Full-length human CK1α, CK1γ1, CK1γ2, CK1γ3 and catalytic domain of human CK1ϵ were expressed as N-terminal GST-fusion protein using baculovirus system, and purified by using glutathione sepharose chromatography. Catalytic domain of CK1δ was expressed as N-terminal GST-fusion protein in E. coli, and purified by using glutathione sepharose chromatography.

[3] = test system: carrageenan-induced inflammatory pain in mice; assay: Carrageenan-induced acute inflammatory pain behaviors, intrathecal injection; format: in vivo, mouse; details: for withdrawal latency of the ipsilateral hind paw (thermal hyperalgesia), carrageenan / withdrawal threshold of the ipsilateral hind paw (mechanical allodynia), carrageenan: i.t., IC261 0.1-1 nmol, TG003 0.1-100 pmol
Experimental: (§2) Male C57BL/6 J mice (5 weeks old) were purchased from Clea Japan, Inc. (Tokyo, Japan) and housed under controlled temperature (24 ± 1°C) and humidity (55 ± 10%) with a 12-hour light-dark cycle with food and water freely available. The animal experiments were approved by the Animal Care Committees of Tokyo Medical and Dental University (approval No. 0090173) and Kagoshima University (approval No. MD10053), and were conducted in accordance with the ethical guidelines for the study of experimental pain in conscious animals published by the International Association of the Study of Pain (1995) and the European Communities Council Directive of 24 November, 1986 (86/609/EEC).
(§3) To produce acute and persistent inflammatory pain, carrageenan (2% lambda carrageenan in saline, 25 μl, Sigma, St. Louis, MO) and complete Freund’s adjuvant (CFA, 25 μl, Sigma) were injected into the plantar surface of the right hindpaw under light halothane anesthesia, respectively. Control mice were treated with saline or incomplete Freund’s adjuvant (IFA, Sigma), respectively. Mechanical allodynia and thermal hyperalgesia were measured using the Dynamic Plantar Aesthesiometer (Ugo Basile, Comerio VA, Italy) and the Paw Thermal Stimulator (UCSD, San Diego, CA, USA), respectively as described. In CFA model, these behavioral experiments were conducted 3 days after the injection. Intrathecal (i.t.) injection was given in a volume of 5 μl by percutaneous puncture through an intervertebral space at the level of the 5th or 6th lumbar vertebra, according to a previously reported procedure. An investigator, who was unaware of the drug treatment, performed all of the behavioral experiments.

[4] = test system: substantia gelatinosa neurons; assay: Whole-cell patch-clamp recording of sEPSCs in spinal cord slices; format: cell-based, mouse; details: for frequency and amplitude of sEPSCs, control mice: 1 μM superfusion, slices from control mice, holding potential -70 mV; for mean frequency of sEPSCs in inflammatory pain model mice: 1 μM, carrageenan- and CFA-inflamed mice
Experimental: (§4) Adult mouse spinal cord slices were prepared according to the method of Yoshimura & Jessell. Briefly, 6 hours after carrageenan or saline injection, and 3 days after CFA or IFA injection, transverse slices (thickness, 800-900 μm) of the L5 spinal segments with the L5 dorsal root attached were cut on a vibrating blade microtome. The slices were superfused with Krebs solution (10-15 ml/min) saturated with 95% O2 and 5% CO2 at 36 ± 1°C. The composition of Krebs solution was as follows (in mM): NaCl 117; KCl 3.6; NaHCO3 25; NaH2PO4 1.2; CaCl2 2.5; MgCl2 1.2, and glucose 11 (pH 7.4 after gas saturation).
Blind whole-cell patch-clamp recordings were made from the lamina II (substantia gelatinosa: SG) neurons ipsilateral to carrageenan, CFA, or vehicle (saline or IFA) injection in voltage clamp mode. Patch pipettes were fabricated from thin-walled, borosilicate, glass-capillary tubing (1.5 mm o.d., World Precision Instruments). After establishing the whole-cell configuration, neurons were held at the potential of -70 mV to record spontaneous excitatory postsynaptic currents (sEPSCs) and at the potential of 0 mV to record spontaneous inhibitory postsynaptic currents (sIPSC). Under these conditions, GABA- and glycine-mediated IPSCs and glutamate-mediated EPSCs, respectively, were negligible, because these holding potential were close to the reversal potentials of IPSCs and EPSCs, respectively. Recording electrodes were filled with either potassium gluconate-based solution (in mM: K-gluconate 135; KCl 5; CaCl2 0.5; MgCl2 2; EGTA 5; HEPES 5; ATP-Mg 5; adjusted with KOH to pH 7.2) to investigate EPSCs, or Cs-based solution (in mM: Cs2SO4 110; tetraethylammonium 5; CaCl2 0.5; MgCl2 2; EGTA 5; HEPES 5; ATP-Mg 5; adjusted with CsOH to pH 7.2) to examine IPSCs. The resistance of a typical patch pipette is 5-10 MΩ. Membrane currents were amplified with an Axopatch 200B amplifier (Molecular Devices, Sunnyvale, CA, USA) in voltage-clamp mode. Signals were low-pass filtered at 5 kHz and digitized at 333 kHz with an A/D converter (Digidata 1322, Molecular Devices). Data were stored with a personal computer using pCLAMP10 software and analyzed with Mini Analysis software (Synaptosoft Inc., Decatur, GA, USA).
(§5) The average values of both frequency and amplitude of sEPSCs or sIPSCs during the control (1 min) and 5-10 min after the drug application (1 min period after the attainment of steady effect of each drug) were calculated and quantified as relative changes in frequency and amplitude.

[5] = biological target: T3, human CK1γ1 (Homo sapiens, UniProt Q9HCP0); assay: In vitro kinase assay (QuickScout mobility shift assay), CK1γ1; format: biochemical
T3 construct: Full-length human CK1α, CK1γ1, CK1γ2, CK1γ3; GST (N); purchased Carna Biosciences, Inc; host or cells: baculovirus system (insect cells)
T3 sequence (Q9HCP0 whole entry): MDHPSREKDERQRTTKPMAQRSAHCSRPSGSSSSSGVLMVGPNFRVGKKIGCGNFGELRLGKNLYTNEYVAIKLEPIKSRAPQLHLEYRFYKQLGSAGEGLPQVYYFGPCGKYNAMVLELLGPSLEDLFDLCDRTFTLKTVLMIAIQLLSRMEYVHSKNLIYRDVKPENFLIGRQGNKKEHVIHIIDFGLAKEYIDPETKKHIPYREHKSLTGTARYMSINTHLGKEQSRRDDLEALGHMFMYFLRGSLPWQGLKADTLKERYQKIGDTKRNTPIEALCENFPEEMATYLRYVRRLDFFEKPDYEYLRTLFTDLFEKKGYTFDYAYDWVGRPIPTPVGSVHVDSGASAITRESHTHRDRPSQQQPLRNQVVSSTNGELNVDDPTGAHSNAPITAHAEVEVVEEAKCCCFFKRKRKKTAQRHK
Description: as §1

[6] = test system: CFA-induced inflammatory pain in mice; assay: CFA-induced persistent inflammatory pain behaviors, intrathecal injection; format: in vivo, mouse; details: for withdrawal latency of the ipsilateral hind paw (thermal hyperalgesia), CFA / withdrawal threshold of the ipsilateral hind paw (mechanical allodynia), CFA: i.t., IC261 0.1-1 nmol, TG003 0.1-100 pmol, 3 days after CFA
Experimental: as §2, §3

[7] = test system: Clk1; design: method as in PMID 15010457; details: range given for Clk1 and 4 isoforms together; read-out: IC50 against Clk1; cited from earlier work
[8] = biological target: CK1δ (Homo sapiens, UniProt P48730); assay: PER3 nuclear translocation assay, HEK293 cells expressing CK1δ; details: 30 μM, 1 hour pre-incubation, 8 hours doxycycline
[9] = biological target: T4, CK1δ (Homo sapiens, UniProt P48730); assay: In vitro kinase assay (QuickScout mobility shift assay), CK1δ; format: biochemical
T4 construct: Catalytic domain of CK1δ was expressed as N-terminal GST-fusion protein in E. coli; GST (N); purchased Carna Biosciences, Inc; host or cells: E. coli
T4 sequence (P48730 9-277 limits assumed): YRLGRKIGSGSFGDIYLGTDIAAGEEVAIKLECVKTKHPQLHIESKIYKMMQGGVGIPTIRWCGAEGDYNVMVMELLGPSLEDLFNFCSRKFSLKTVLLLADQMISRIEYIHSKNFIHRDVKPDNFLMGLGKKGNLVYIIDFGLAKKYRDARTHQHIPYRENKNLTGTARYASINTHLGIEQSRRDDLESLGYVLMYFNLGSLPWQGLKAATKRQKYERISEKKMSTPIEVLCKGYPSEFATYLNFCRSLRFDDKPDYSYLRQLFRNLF
Description: (§6) Detailed information on the assay condition is available on the website of Carna Biosciences (http://www.carnabio.com). Full-length human CK1α, CK1γ1, CK1γ2, CK1γ3 and catalytic domain of human CK1ϵ were expressed as N-terminal GST-fusion protein using baculovirus system, and purified by using glutathione sepharose chromatography. Catalytic domain of CK1δ was expressed as N-terminal GST-fusion protein in E. coli, and purified by using glutathione sepharose chromatography.

[10] = biological target: T5, human CK1γ3 (Homo sapiens, UniProt Q9Y6M4); assay: In vitro kinase assay (QuickScout mobility shift assay), CK1γ3; format: biochemical; details: substrate peptide CKtide; ATP at Km 3.2 μM; average of duplicated experiments
T5 construct: Full-length human CK1α, CK1γ1, CK1γ2, CK1γ3; GST (N); purchased Carna Biosciences, Inc; host or cells: baculovirus system (insect cells)
T5 sequence (Q9Y6M4 whole entry): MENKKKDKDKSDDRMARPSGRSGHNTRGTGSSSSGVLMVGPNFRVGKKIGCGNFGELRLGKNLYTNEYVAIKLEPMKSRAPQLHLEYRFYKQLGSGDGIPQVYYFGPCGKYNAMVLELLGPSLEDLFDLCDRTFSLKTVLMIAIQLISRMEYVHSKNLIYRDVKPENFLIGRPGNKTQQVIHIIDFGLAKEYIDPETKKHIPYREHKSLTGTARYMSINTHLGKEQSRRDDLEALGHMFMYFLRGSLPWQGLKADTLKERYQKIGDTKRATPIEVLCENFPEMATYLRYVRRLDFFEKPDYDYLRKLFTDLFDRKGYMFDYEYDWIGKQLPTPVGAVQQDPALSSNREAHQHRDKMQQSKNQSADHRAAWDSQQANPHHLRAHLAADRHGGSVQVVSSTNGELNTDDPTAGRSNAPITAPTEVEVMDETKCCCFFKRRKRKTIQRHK
Description: as §6

[11] = test system: substantia gelatinosa neurons; assay: Whole-cell patch-clamp recording of sIPSCs in spinal cord slices; format: cell-based, mouse; details: 1 μM, holding potential 0 mV
Experimental: as §4
Blind whole-cell patch-clamp recordings were made from the lamina II (substantia gelatinosa: SG) neurons ipsilateral to carrageenan, CFA, or vehicle (saline or IFA) injection in voltage clamp mode. Patch pipettes were fabricated from thin-walled, borosilicate, glass-capillary tubing (1.5 mm o.d., World Precision Instruments). […] Data were stored with a personal computer using pCLAMP10 software and analyzed with Mini Analysis software (Synaptosoft Inc., Decatur, GA, USA).
as §5

[12] = biological target: T6, human CK1ϵ (Homo sapiens, UniProt P49674); assay: In vitro kinase assay (QuickScout mobility shift assay), CK1ϵ; format: biochemical; details: substrate peptide CKtide; ATP at Km 16 μM; average of duplicated experiments
T6 construct: catalytic domain of human CK1ϵ were expressed as N-terminal GST-fusion protein; GST (N); purchased Carna Biosciences, Inc; host or cells: baculovirus system (insect cells)
T6 sequence (P49674 9-277 limits assumed): T4 sequence (P48730 9-277 limits assumed) with T19A, D20N, A23S, I47F, T59S, R61K, A241S
Description: as §6

[13] = biological target: T7, human CK1γ2 (Homo sapiens, UniProt P78368); assay: In vitro kinase assay (QuickScout mobility shift assay), CK1γ2; format: biochemical
T7 construct: Full-length human CK1α, CK1γ1, CK1γ2, CK1γ3; GST (N); purchased Carna Biosciences, Inc; host or cells: baculovirus system (insect cells)
T7 sequence (P78368 whole entry): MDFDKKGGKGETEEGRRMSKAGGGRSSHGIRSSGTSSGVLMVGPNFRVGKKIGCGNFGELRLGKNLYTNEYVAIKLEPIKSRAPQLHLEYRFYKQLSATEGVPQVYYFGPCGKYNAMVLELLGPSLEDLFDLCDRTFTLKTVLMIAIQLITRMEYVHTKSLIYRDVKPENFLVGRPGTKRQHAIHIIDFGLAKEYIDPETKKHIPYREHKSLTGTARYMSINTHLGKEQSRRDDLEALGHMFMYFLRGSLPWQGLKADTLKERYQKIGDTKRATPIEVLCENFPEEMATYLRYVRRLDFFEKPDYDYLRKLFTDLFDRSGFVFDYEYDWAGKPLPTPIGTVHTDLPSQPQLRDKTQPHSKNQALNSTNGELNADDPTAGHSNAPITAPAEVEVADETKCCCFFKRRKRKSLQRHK
Description: as §6

With Nc1nccc(-c2c(-c3ccc(F)cc3)ncn2C2CCCCC2)n1 [PF-670462] the “CK1ϵ-induced nuclear translocation of mCherry-PER3” value ([1]; 1 μM) was “also inhibited the nuclear translocation”.

For CCN1/C(=C/C(C)=O)Sc2ccc(OC)cc21 [TG003], the IC50 ([2]; substrate peptide CKtide, ATP at Km 4.1 μM, average of duplicated experiments, read-out: IC50 on the kinase activity of CK1α) was 0.33 µM, the “withdrawal latency of the ipsilateral hind paw (thermal hyperalgesia), carrageenan” value [3] was “dose-dependently increased” and the “withdrawal threshold of the ipsilateral hind paw (mechanical allodynia), carrageenan” value [3] was “dose-dependently increased”. For the same compound, the “frequency and amplitude of sEPSCs, control mice” value [4] was “altered neither the frequency nor the amplitude of sEPSCs”, the “mean frequency of sEPSCs in inflammatory pain model mice” value [4] was “decreased” and the IC50 ([5]; substrate peptide CKtide, ATP at Km 6.3 μM, average of duplicated experiments, read-out: IC50 on the kinase activity of CK1γ1) was 1.5 µM. For the same compound, the CFA-induced mechanical allodynia ([6]; 1 pmol i.t.) was “significantly reversed”, the CFA-induced thermal hyperalgesia ([6]; 1 pmol i.t.) was “did not affect” and the “withdrawal latency of the ipsilateral hind paw (thermal hyperalgesia), CFA” value [6] was “dose-dependently increased”. The “withdrawal threshold of the ipsilateral hind paw (mechanical allodynia), CFA” value [6] was “dose-dependently increased”, the IC50 [7] was […] and the “CK1δ-induced nuclear translocation of mCherry-PER3” value [8] was “inhibited the nuclear translocation of mCherry-PER3”. The “CK1ϵ-induced nuclear translocation of mCherry-PER3” value ([1]; 30 μM) was “inhibited the nuclear translocation of mCherry-PER3”.

With COc1cc(OC)c(C=C2C(O)=Nc3ccccc32)c(OC)c1 [IC261] the IC50 [2] was 0.19 µM, the “withdrawal latency of the ipsilateral hind paw (thermal hyperalgesia), carrageenan” value [3] was “dose-dependently increased” and the “withdrawal threshold of the ipsilateral hind paw (mechanical allodynia), carrageenan” value [3] was “dose-dependently increased”. For the same compound, the “development of thermal hyperalgesia induced by carrageenan” value ([3]; spinal preemptive treatment, i.t. 30 min before carrageenan) was “dose-dependently attenuated”, the “frequency and amplitude of sEPSCs, control mice” value [4] was “altered neither the frequency nor the amplitude of sEPSCs” and the “mean frequency of sEPSCs in inflammatory pain model mice” value [4] was “decreased”. The IC50 [5] was > 30 µM, the IC50 [9] was 0.6 µM and the “withdrawal latency of the ipsilateral hind paw (thermal hyperalgesia), CFA” value [6] was “dose-dependently increased”. The “withdrawal threshold of the ipsilateral hind paw (mechanical allodynia), CFA” value [6] was “dose-dependently increased”, the IC50 [10] was > 30 µM and the “sIPSCs from the inflamed mice” value ([11]; carrageenan- and CFA-inflamed mice) was “did not affect sIPSCs”. For the same compound, the “mean amplitude of control sIPSCs” value ([11]; control mice) was “slight but significant reduction”, the IC50 [12] was 0.86 µM and the IC50 [13] was > 30 µM.
